Series [1] relates to full length SMN2 minigene mRNA containing SMN2 exon 7 (SMN2-A minigene). The series can be described thus: SMN2 minigene mRNA splicing RT-qPCR assay in cultured cells. It is filed as cell-based, human. As to conditions: Homo sapiens, HEK293-H; HEK293H cells stably transfected with SMN2-A minigene, 24 hours, 7-point concentration curve; concentration giving 1.5-fold SMN2 full length mRNA vs vehicle; read-out: EC1.5x for production of full length SMN2 mRNA. Summed up:
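HEK293H cells stably carrying the SMN2-A minigene were treated 24 h at 37 °C with a 7-point, 3.16-fold test compound series, in duplicate. Multiplex RT-qPCR measured exon 7-containing minigene FL mRNA, normalized to GAPDH and expressed relative to vehicle; EC1.5x is the concentration giving 1.5-fold FL mRNA.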
Background: Quantitative PCR measures a nucleic acid by following its amplification.

The next series relates to Smn protein. The series can be described thus: Smn protein assay (Smn HTRF) in cultured cells. Format: cell-based, human. The following applies: Homo sapiens, Fibroblast, GM03813 SMA Type 1 patient fibroblasts, 48 hours, HTRF; for maximal fold induction: 7-point concentration data, relative to vehicle, read-out: maximum fold (Fold) increase of Smn protein; for EC (1.5-fold): concentration producing 1.5 times Smn protein vs DMSO vehicle, read-out: EC1.5x for Smn protein expression. The method in brief: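 SMA patient fibroblasts (5,000/well) were exposed to a 7-point, 3.16-fold compound dilution series for 48 hours at 37° C, in triplicate. Lysates were read by HTRF with anti-SMN d2/kryptate at 665/620 nm. Blank-corrected signal was expressed as fold over DMSO vehicle, giving the EC1.5x and the maximum fold increase.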
On the technique in general: TR-FRET usually uses a lanthanide donor and a delayed reading to cut background.

On to `Cc1csc(-c2cc(=O)c3cc(N4CCNCC4)ccc3o2)n1` [Cpd 76, 2-(4-methyl-1,3-thiazol-2-yl)-6-(piperazin-1-yl)-4H-chromen-4-one], for which the melting point (in general, the temperature of the solid-liquid transition) lay within 179 to 182 °C. Besides, the EC (1.5-fold) in series [1] was in the range of 0.3 to 1 µM. For the same molecule, in the series on Smn protein, the maximal fold induction fell in the range of 1.5 to 1.65 and the EC (1.5-fold) was 1 to 3 µM.
Taken in the same sequence, the figures for `COc1ccc(-c2cc(=O)c3cc(N4CCN[C@@H](C)C4)ccc3o2)cc1Cl` [Cpd 59, 2-(3-chloro-4-methoxyphenyl)-6-[(3S)-3-methylpiperazin-1-yl]-4H-chromen-4-one] were 172 to 174 °C, at most 0.1 µM, 1.5 to 1.65 and at most 0.3 µM.
As for `COc1ccc(-c2cc(=O)c3cc(N4CCN[C@@H](C)C4)ccc3o2)cc1OC(F)(F)F` [Cpd 70, 2-[4-methoxy-3-(trifluoromethoxy)phenyl]-6-[(3S)-3-methylpiperazin-1-yl]-4H-chromen-4-one], the melting point fell in the range of 142 to 146 °C. Also, the EC (1.5-fold) in series [1] lay in the range of 0.3 to 1 µM. For the same molecule, the maximal fold induction with Smn protein lay within 1.2 to 1.35.
As for `COc1ccc(-c2cc(=O)c3cc(N4CCNCC4)ccc3o2)cc1Cl` [Cpd 58, 2-(3-chloro-4-methoxyphenyl)-6-(piperazin-1-yl)-4H-chromen-4-one], the melting point fell in the range of 145 to 150 °C. Moreover, in series [1], the EC (1.5-fold) is at most 0.1 µM. Moreover, in the series with Smn protein, the maximal fold induction lay in the range of 1.35 to 1.5 and the EC (1.5-fold) is 1 to 3 µM.
The molecule `Cc1ccn2cc(-c3cc(=O)c4cc(N5CCNCC5)ccc4o3)nc2c1` [Cpd 28, 2-(7-methylimidazo[1,2-a]pyridin-2-yl)-6-(piperazin-1-yl)-4H-chromen-4-one] showed a melting point of 228 to 232 °C. Further, in series [1], the EC (1.5-fold) lay within 1 to 3 µM. Also, in the series with Smn protein, the maximal fold induction is over 1.65 and the EC (1.5-fold) was 3 to 10 µM.
In turn, `COc1ccc(-c2cc(=O)c3cc(N4C[C@@H](C)N[C@@H](C)C4)ccc3o2)cc1OC` [Cpd 24, 2-(3,4-dimethoxyphenyl)-6-[(3R,5S)-3,5-dimethylpiperazin-1-yl]-4H-chromen-4-one] gave a melting point of 206 to 208 °C. For the same molecule, in series [1], the EC (1.5-fold) was in the range of 0.3 to 1 µM. Further, in the series with Smn protein, the maximal fold induction was over 1.65 and the EC (1.5-fold) lay in the range of 1 to 3 µM.
On the same counts, the results for `C[C@H]1CN(c2ccc3oc(-c4cc(F)cc(F)c4)cc(=O)c3c2)CCN1` [Cpd 80, 2-(3,5-difluorophenyl)-6-[(3S)-3-methylpiperazin-1-yl]-4H-chromen-4-one] are 175 to 178 °C, at most 0.1 µM, 1.5 to 1.65 and 0.3 to 1 µM.
In turn, `COc1cc(F)c(-c2cc(=O)c3cc(N4C[C@@H](C)N[C@@H](C)C4)ccc3o2)cc1OC` [Cpd 47, 6-[(3R,5S)-3,5-dimethylpiperazin-1-yl]-2-(2-fluoro-4,5-dimethoxyphenyl)-4H-chromen-4-one] showed a melting point of 164 to 166 °C. Further, the EC (1.5-fold) in series [1] is 1 to 3 µM. Besides, in the series on Smn protein, the maximal fold induction lay in the range of 1.5 to 1.65 and the EC (1.5-fold) lay within 1 to 3 µM.
`Cc1cn2cc(-c3cc(=O)c4cc(N5CCN[C@@H](C)C5)ccc4o3)nc2cn1` [Cpd 73, 2-(6-methylimidazo[1,2-a]pyrazin-2-yl)-6-[(3S)-3-methylpiperazin-1-yl]-4H-chromen-4-one] showed a melting point of 212 to 216 °C. Besides, the EC (1.5-fold) in series [1] is at most 0.1 µM. In the series on Smn protein, the maximal fold induction is over 1.65 and the EC (1.5-fold) is at most 0.3 µM.
`C[C@@H]1CN(c2ccc3oc(-c4cccnc4)cc(=O)c3c2)C[C@H](C)N1` [Cpd 9, 6-[(3R,5S)-3,5-dimethylpiperazin-1-yl]-2-(pyridin-3-yl)-4H-chromen-4-one] displayed a melting point of 148 to 150 °C. Also, the EC (1.5-fold) in series [1] lay in the range of 1 to 3 µM. Further, in the series on Smn protein, the maximal fold induction was 1.5 to 1.65 and the EC (1.5-fold) was in the range of 3 to 10 µM.

The values are drawn from patent publication US9914722B2, “Compounds for treating spinal muscular atrophy” (PTC Therapeutics Inc., priority 2012, dated 2018).
